{"source": "patent US20230085307A1", "about": "“PYRIDAZINONE COMPOUND AND HERBICIDE” (NISSAN CHEMICAL CORPORATION, priority 2019, published 2023)", "key": {"barnyard grass [1]": {"system": "barnyard grass", "assay": "Test Example 3: herbicidal effect by foliage application, Wagner pot (Table 18, symbol H)", "type": "in vivo, barnyard grass (Echinochloa crus-galli)", "settings": "320 g/ha", "in_short": "(§1)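 Plants were sown in alluvial soil held under 0.1–0.5 cm standing water and grown 14 days in a greenhouse at 25–30 °C. An emulsifiable formulation, water-diluted to the set dose, was then sprayed onto the foliage, and effects were scored three weeks later using previously defined criteria.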"}, "Chinese sprangletop": {"system": "Chinese sprangletop", "assay": "Test Example 3: herbicidal effect by foliage application, Wagner pot (Table 18, symbol D)", "type": "in vivo, chinese sprangletop (Leptochloa chinensis)", "settings": "320 g/ha", "in_short": "as §1"}, "rice flat sedge": {"system": "rice flat sedge", "assay": "Test Example 3: herbicidal effect by foliage application, Wagner pot (Table 18, symbol E)", "type": "in vivo, rice flat sedge (Cyperus iria)", "settings": "320 g/ha", "in_short": "as §1"}, "southern crabgrass [2]": {"system": "southern crabgrass", "assay": "Test Example 4: herbicidal effect by soil treatment (Table 19, symbol F)", "type": "in vivo, southern crabgrass (Digitaria ciliaris)", "settings": "320 g/ha", "in_short": "(§2)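 In this soil treatment, the formulated compound reached the seeds only through the soil: seeds were buried about 1.5 cm deep in sterilized diluvial soil, then the diluted emulsion was sprayed over the surface. After three weeks at 25° C. to 30° C. in a greenhouse, effects were graded on criteria from an earlier test.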"}, "green foxtail [3]": {"system": "green foxtail", "assay": "Test Example 4: herbicidal effect by soil treatment (Table 19, symbol G)", "type": "in vivo, green foxtail (Setaria viridis)", "settings": "320 g/ha", "in_short": "as §2"}, "barnyard grass [4]": {"system": "barnyard grass", "assay": "Test Example 4: herbicidal effect by soil treatment (Table 19, symbol H)", "type": "in vivo, barnyard grass (Echinochloa crus-galli)", "settings": "320 g/ha", "in_short": "as §2"}, "wild oat [5]": {"system": "wild oat", "assay": "Test Example 4: herbicidal effect by soil treatment (Table 19, symbol I)", "type": "in vivo, wild oat (Avena fatua)", "settings": "320 g/ha", "in_short": "as §2"}, "blackgrass [6]": {"system": "blackgrass", "assay": "Test Example 4: herbicidal effect by soil treatment (Table 19, symbol J)", "type": "in vivo, blackgrass (Alopecurus myosuroides)", "settings": "320 g/ha", "in_short": "as §2"}, "Italian ryegrass [7]": {"system": "Italian ryegrass", "assay": "Test Example 4: herbicidal effect by soil treatment (Table 19, symbol K)", "type": "in vivo, Italian ryegrass (Lolium multiflorum)", "settings": "320 g/ha", "in_short": "as §2"}, "windgrass [8]": {"system": "windgrass", "assay": "Test Example 4: herbicidal effect by soil treatment (Table 19, symbol L)", "type": "in vivo, windgrass (Apera spica-venti)", "settings": "320 g/ha", "in_short": "as §2"}, "velvetleaf [9]": {"system": "velvetleaf", "assay": "Test Example 4: herbicidal effect by soil treatment (Table 19, symbol M)", "type": "in vivo, velvetleaf (Abutilon theophrasti)", "settings": "320 g/ha", "in_short": "as §2"}, "redroot pigweed [10]": {"system": "redroot pigweed", "assay": "Test Example 4: herbicidal effect by soil treatment (Table 19, symbol N)", "type": "in vivo, redroot pigweed (Amaranthus retroflexus)", "settings": "320 g/ha", "in_short": "as §2"}, "lambsquarters [11]": {"system": "lambsquarters", "assay": "Test Example 4: herbicidal effect by soil treatment (Table 19, symbol O)", "type": "in vivo, lambsquarters (Chenopodium album)", "settings": "320 g/ha", "in_short": "as §2"}, "chickweed [12]": {"system": "chickweed", "assay": "Test Example 4: herbicidal effect by soil treatment (Table 19, symbol P)", "type": "in vivo, common chickweed (Stellaria media)", "settings": "320 g/ha", "in_short": "as §2"}, "persian speedwell [13]": {"system": "persian speedwell", "assay": "Test Example 4: herbicidal effect by soil treatment (Table 19, symbol R)", "type": "in vivo, Persian speedwell (Veronica persica)", "settings": "320 g/ha", "in_short": "as §2"}, "southern crabgrass [14]": {"system": "southern crabgrass", "assay": "Test Example 5: herbicidal effect by foliage application, plastic box (Table 20, symbol F)", "type": "in vivo, southern crabgrass (Digitaria ciliaris)", "settings": "foliage application, 320 g/ha, evaluated three weeks after application", "in_short": "(§3)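 Plants were sown into sterilized diluvial soil under about 1.5 cm cover and kept in a greenhouse at 25° C. to 30° C. Fourteen days on, foliage received an even spray of the diluted emulsion. Herbicidal or crop effect was judged three weeks afterwards.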"}, "green foxtail [15]": {"system": "green foxtail", "assay": "Test Example 5: herbicidal effect by foliage application, plastic box (Table 20, symbol G)", "type": "in vivo, green foxtail (Setaria viridis)", "settings": "foliage application, 320 g/ha, evaluated three weeks after application", "in_short": "as §3"}, "barnyard grass [16]": {"system": "barnyard grass", "assay": "Test Example 5: herbicidal effect by foliage application, plastic box (Table 20, symbol H)", "type": "in vivo, barnyard grass (Echinochloa crus-galli)", "settings": "foliage application, 320 g/ha, evaluated three weeks after application", "in_short": "as §3"}, "wild oat [17]": {"system": "wild oat", "assay": "Test Example 5: herbicidal effect by foliage application, plastic box (Table 20, symbol I)", "type": "in vivo, wild oat (Avena fatua)", "settings": "foliage application, 320 g/ha, evaluated three weeks after application", "in_short": "as §3"}, "blackgrass [18]": {"system": "blackgrass", "assay": "Test Example 5: herbicidal effect by foliage application, plastic box (Table 20, symbol J)", "type": "in vivo, blackgrass (Alopecurus myosuroides)", "settings": "foliage application, 320 g/ha, evaluated three weeks after application", "in_short": "as §3"}, "Italian ryegrass [19]": {"system": "Italian ryegrass", "assay": "Test Example 5: herbicidal effect by foliage application, plastic box (Table 20, symbol K)", "type": "in vivo, Italian ryegrass (Lolium multiflorum)", "settings": "foliage application, 320 g/ha, evaluated three weeks after application", "in_short": "as §3"}, "windgrass [20]": {"system": "windgrass", "assay": "Test Example 5: herbicidal effect by foliage application, plastic box (Table 20, symbol L)", "type": "in vivo, windgrass (Apera spica-venti)", "settings": "foliage application, 320 g/ha, evaluated three weeks after application", "in_short": "as §3"}, "velvetleaf [21]": {"system": "velvetleaf", "assay": "Test Example 5: herbicidal effect by foliage application, plastic box (Table 20, symbol M)", "type": "in vivo, velvetleaf (Abutilon theophrasti)", "settings": "foliage application, 320 g/ha, evaluated three weeks after application", "in_short": "as §3"}, "redroot pigweed [22]": {"system": "redroot pigweed", "assay": "Test Example 5: herbicidal effect by foliage application, plastic box (Table 20, symbol N)", "type": "in vivo, redroot pigweed (Amaranthus retroflexus)", "settings": "foliage application, 320 g/ha, evaluated three weeks after application", "in_short": "as §3"}, "lambsquarters [23]": {"system": "lambsquarters", "assay": "Test Example 5: herbicidal effect by foliage application, plastic box (Table 20, symbol O)", "type": "in vivo, lambsquarters (Chenopodium album)", "settings": "foliage application, 320 g/ha, evaluated three weeks after application", "in_short": "as §3"}, "chickweed [24]": {"system": "chickweed", "assay": "Test Example 5: herbicidal effect by foliage application, plastic box (Table 20, symbol P)", "type": "in vivo, common chickweed (Stellaria media)", "settings": "foliage application, 320 g/ha, evaluated three weeks after application", "in_short": "as §3"}, "persian speedwell [25]": {"system": "persian speedwell", "assay": "Test Example 5: herbicidal effect by foliage application, plastic box (Table 20, symbol R)", "type": "in vivo, Persian speedwell (Veronica persica)", "settings": "foliage application, 320 g/ha, evaluated three weeks after application", "in_short": "as §3"}}, "data": [{"compound": "C#CCOc1ccc(-c2sc3ccc(F)cc3c2-c2c(OCC#C)c(C)nn(C)c2=O)cc1", "note": "[2-054]", "values": [{"measurement": "herbicidal effect on H (barnyard grass), rating 0-5", "setting": "barnyard grass [1]", "result": "4 (Herbicidal rate of 70% or more and less than 90%)"}, {"measurement": "herbicidal effect on D (Chinese sprangletop), rating 0-5", "setting": "Chinese sprangletop", "result": "5 (Herbicidal rate of 90% or more (almost completely withered))"}, {"measurement": "herbicidal effect on E (rice flat sedge), rating 0-5", "setting": "rice flat sedge", "result": "3 (Herbicidal rate of 40% or more and less than 70%)"}, {"measurement": "herbicidal effect rating, F: southern crabgrass", "setting": "southern crabgrass [2]", "result": "0 (Herbicidal rate of 5% or less (almost no effect))"}, {"measurement": "herbicidal effect rating, G: green foxtail", "setting": "green foxtail [3]", "result": "0 (Herbicidal rate of 5% or less (almost no effect))"}, {"measurement": "herbicidal effect rating, H: barnyard grass", "setting": "barnyard grass [4]", "result": "0 (Herbicidal rate of 5% or less (almost no effect))"}, {"measurement": "herbicidal effect rating, I: wild oat", "setting": "wild oat [5]", "result": "0 (Herbicidal rate of 5% or less (almost no effect))"}, {"measurement": "herbicidal effect rating, J: blackgrass", "setting": "blackgrass [6]", "result": "0 (Herbicidal rate of 5% or less (almost no effect))"}, {"measurement": "herbicidal effect rating, K: Italian ryegrass", "setting": "Italian ryegrass [7]", "result": "0 (Herbicidal rate of 5% or less (almost no effect))"}, {"measurement": "herbicidal effect rating, L: windgrass", "setting": "windgrass [8]", "result": "0 (Herbicidal rate of 5% or less (almost no effect))"}, {"measurement": "herbicidal effect rating, M: velvetleaf", "setting": "velvetleaf [9]", "result": "0 (Herbicidal rate of 5% or less (almost no effect))"}, {"measurement": "herbicidal effect rating, N: redroot pigweed", "setting": "redroot pigweed [10]", "result": "3 (Herbicidal rate of 40% or more and less than 70%)"}, {"measurement": "herbicidal effect rating, O: lambsquarters", "setting": "lambsquarters [11]", "result": "0 (Herbicidal rate of 5% or less (almost no effect))"}, {"measurement": "herbicidal effect rating, P: chickweed", "setting": "chickweed [12]", "result": "0 (Herbicidal rate of 5% or less (almost no effect))"}, {"measurement": "herbicidal effect rating, R: persian speedwell", "setting": "persian speedwell [13]", "result": "3 (Herbicidal rate of 40% or more and less than 70%)"}, {"measurement": "herbicidal effect on F: southern crabgrass", "setting": "southern crabgrass [14]", "result": "0 (Herbicidal rate of 5% or less (almost no effect))"}, {"measurement": "herbicidal effect on G: green foxtail", "setting": "green foxtail [15]", "result": "3 (Herbicidal rate of 40% or more and less than 70%)"}, {"measurement": "herbicidal effect on H: barnyard grass", "setting": "barnyard grass [16]", "result": "3 (Herbicidal rate of 40% or more and less than 70%)"}, {"measurement": "herbicidal effect on I: wild oat", "setting": "wild oat [17]", "result": "0 (Herbicidal rate of 5% or less (almost no effect))"}, {"measurement": "herbicidal effect on J: blackgrass", "setting": "blackgrass [18]", "result": "0 (Herbicidal rate of 5% or less (almost no effect))"}, {"measurement": "herbicidal effect on K: Italian ryegrass", "setting": "Italian ryegrass [19]", "result": "0 (Herbicidal rate of 5% or less (almost no effect))"}, {"measurement": "herbicidal effect on L: windgrass", "setting": "windgrass [20]", "result": "0 (Herbicidal rate of 5% or less (almost no effect))"}, {"measurement": "herbicidal effect on M: velvetleaf", "setting": "velvetleaf [21]", "result": "4 (Herbicidal rate of 70% or more and less than 90%)"}, {"measurement": "herbicidal effect on N: redroot pigweed", "setting": "redroot pigweed [22]", "result": "4 (Herbicidal rate of 70% or more and less than 90%)"}, {"measurement": "herbicidal effect on O: lambsquarters", "setting": "lambsquarters [23]", "result": "3 (Herbicidal rate of 40% or more and less than 70%)"}, {"measurement": "herbicidal effect on P: chickweed", "setting": "chickweed [24]", "result": "5 (Herbicidal rate of 90% or more (almost completely withered))"}, {"measurement": "herbicidal effect on R: persian speedwell", "setting": "persian speedwell [25]", "result": "5 (Herbicidal rate of 90% or more (almost completely withered))"}]}]}
